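Where inhibition never reached the appropriate level, the endpoint shown equals the highest concentration tested. Otherwise, values were interpolated linearly from a five-concentration, 48-hour dose response in 96-well plates. GI50 marks 50% less growth.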 Active and inactive are the calls of the source. No stated cut-off is given here; in the data, active = GI50 up to about 1.1 µM and inactive = higher.
Legend:
Test in all cases: inhibition of tumour cell growth, NCI panel, 48 h
[1] = test system: 786-0
[2] = test system: CCRF-CEM
[3] = test system: DLD-1
[4] = test system: HCC 2998
[5] = test system: HCT-116
[6] = test system: KM-20L2
[7] = test system: MOLT-4
[8] = test system: Malme-3M
[9] = test system: NCI-H23
[10] = test system: NCI-H460
[11] = test system: OVCAR-4
[12] = test system: OVCAR-8
[13] = test system: SF-295
[14] = test system: SK-MEL-28
[15] = test system: SK-OV-3
[16] = test system: SNB-19
[17] = test system: SR
[18] = test system: TK-10
[19] = test system: UO-31

| Structure (SMILES) | GI50 [1] | GI50 [2] | GI50 [3] | GI50 [4] | GI50 [5] | GI50 [6] | GI50 [7] | GI50 [8] | GI50 [9] | GI50 [10] | GI50 [11] | GI50 [12] | GI50 [13] | GI50 [14] | GI50 [15] | GI50 [16] | GI50 [17] | GI50 [18] | GI50 [19] |
| --- | --- | --- | --- | --- | --- | --- | --- | --- | --- | --- | --- | --- | --- | --- | --- | --- | --- | --- | --- |
| Cc1c(Cl)cccc1NC(=O)C(=O)c1c(O)c2ccc(O)cc2oc1=O | > 100 µM (inactive) | > 100 µM (inactive) | > 100 µM (inactive) | > 100 µM (inactive) | > 100 µM (inactive) | > 100 µM (inactive) | > 100 µM (inactive) | > 100 µM (inactive) | > 100 µM (inactive) | > 100 µM (inactive) | > 100 µM (inactive) | > 100 µM (inactive) | > 100 µM (inactive) | > 100 µM (inactive) | > 100 µM (inactive) | > 100 µM (inactive) | > 100 µM (inactive) | > 100 µM (inactive) | > 100 µM (inactive) |
| Oc1nc(-c2ccccc2)cc(-c2ccccc2O)n1 | > 100 µM (inactive) | > 100 µM (inactive) | > 100 µM (inactive) | > 100 µM (inactive) | 83.4 µM (inactive) | 67.5 µM (inactive) | 67 µM (inactive) | > 100 µM (inactive) | > 100 µM (inactive) | 87.5 µM (inactive) | > 100 µM (inactive) | > 100 µM (inactive) | > 100 µM (inactive) | > 100 µM (inactive) | > 100 µM (inactive) | 58.2 µM (inactive) | > 100 µM (inactive) | > 100 µM (inactive) | 41 µM (inactive) |
| CC(CCC[C@H](C)CO)[C@H]1[C@@H](O)C(O)C2[C@@H]3C[C@@H](O)C4(O)C[C@@H](O)CC[C@]4(C)C3CC[C@@]21C (stereo not given in full) | > 100 µM (inactive) | 40.9 µM (inactive) | > 100 µM (inactive) | > 100 µM (inactive) | > 100 µM (inactive) | > 100 µM (inactive) | > 100 µM (inactive) | > 100 µM (inactive) | > 100 µM (inactive) | > 100 µM (inactive) | > 100 µM (inactive) | > 100 µM (inactive) | > 100 µM (inactive) | > 100 µM (inactive) | > 100 µM (inactive) | > 100 µM (inactive) | 36 µM (inactive) | > 100 µM (inactive) | > 100 µM (inactive) |
| C(CCC[Te][Te]CCCCCCOC1CCCCO1)CCOC1CCCCO1 (stereo not given) | 15.5 µM (inactive) | 11 µM (inactive) | 15.7 µM (inactive) | 14.1 µM (inactive) | 19.8 µM (inactive) | 14.7 µM (inactive) | 9.82 µM (inactive) | 6.44 µM (inactive) | 12.4 µM (inactive) | 14.8 µM (inactive) | – | 16 µM (inactive) | 15.9 µM (inactive) | 14.1 µM (inactive) | 39.6 µM (inactive) | 14.4 µM (inactive) | 7.64 µM (inactive) | 30.1 µM (inactive) | 19.8 µM (inactive) |
| O=C(CCCNC(=O)OCc1ccccc1)OCc1ccc2c(c1)C(=O)c1ccccc1C2=O | 25.3 µM (inactive) | > 100 µM (inactive) | > 100 µM (inactive) | > 100 µM (inactive) | > 100 µM (inactive) | > 100 µM (inactive) | > 100 µM (inactive) | > 100 µM (inactive) | 45.6 µM (inactive) | > 100 µM (inactive) | > 100 µM (inactive) | 47.9 µM (inactive) | 11.3 µM (inactive) | > 100 µM (inactive) | 29.6 µM (inactive) | 51.4 µM (inactive) | > 100 µM (inactive) | 34.8 µM (inactive) | > 100 µM (inactive) |
| Clc1ccc2c(Cl)ncnc2c1I | > 100 µM (inactive) | > 10 µM (inactive) | > 100 µM (inactive) | > 100 µM (inactive) | 76.4 µM (inactive) | > 100 µM (inactive) | 24.8 µM (inactive) | > 100 µM (inactive) | > 100 µM (inactive) | > 100 µM (inactive) | > 100 µM (inactive) | > 100 µM (inactive) | > 100 µM (inactive) | > 100 µM (inactive) | > 100 µM (inactive) | > 100 µM (inactive) | 31.2 µM (inactive) | > 100 µM (inactive) | 67.8 µM (inactive) |
| CCCN(CCC)c1c([N+](=O)[O-])cc(S(N)(=O)=O)cc1[N+](=O)[O-] [ORYZALIN] | 16.7 µM (inactive) | 16.8 µM (inactive) | 19.1 µM (inactive) | 18.5 µM (inactive) | 18 µM (inactive) | 19.3 µM (inactive) | 20.7 µM (inactive) | 17.7 µM (inactive) | 16.1 µM (inactive) | 14.6 µM (inactive) | 14 µM (inactive) | 19.1 µM (inactive) | 16.7 µM (inactive) | 20.7 µM (inactive) | 17.4 µM (inactive) | 19.7 µM (inactive) | 23.5 µM (inactive) | – | 18.6 µM (inactive) |
| O=c1[nH]c2ccccc2cc1C(Cl)=C(Cl)Cl | > 100 µM (inactive) | > 100 µM (inactive) | > 100 µM (inactive) | > 100 µM (inactive) | > 100 µM (inactive) | > 100 µM (inactive) | > 100 µM (inactive) | > 100 µM (inactive) | > 100 µM (inactive) | > 100 µM (inactive) | > 100 µM (inactive) | > 100 µM (inactive) | > 100 µM (inactive) | > 100 µM (inactive) | > 100 µM (inactive) | > 100 µM (inactive) | > 100 µM (inactive) | > 100 µM (inactive) | > 100 µM (inactive) |
| CCCCCCCCCCCCCCCC/C(C(=O)OC)=C(/O)C(=O)OCC | > 100 µM (inactive) | > 100 µM (inactive) | > 100 µM (inactive) | > 100 µM (inactive) | > 100 µM (inactive) | > 100 µM (inactive) | > 100 µM (inactive) | > 100 µM (inactive) | > 100 µM (inactive) | > 100 µM (inactive) | > 100 µM (inactive) | > 100 µM (inactive) | > 100 µM (inactive) | > 100 µM (inactive) | > 100 µM (inactive) | > 100 µM (inactive) | 95.3 µM (inactive) | > 100 µM (inactive) | 94 µM (inactive) |
| Cc1ccc(C)c(NC(=O)C(=O)Nn2c(S)nc3ccccc3c2=O)c1 | > 100 µM (inactive) | > 100 µM (inactive) | > 100 µM (inactive) | > 100 µM (inactive) | > 100 µM (inactive) | > 100 µM (inactive) | > 100 µM (inactive) | > 100 µM (inactive) | > 100 µM (inactive) | > 100 µM (inactive) | > 100 µM (inactive) | > 100 µM (inactive) | > 100 µM (inactive) | > 100 µM (inactive) | > 100 µM (inactive) | > 100 µM (inactive) | > 100 µM (inactive) | > 100 µM (inactive) | > 100 µM (inactive) |
| Cc1c[nH]c2c1C13CC1CN(C(=O)c1cc4cc(NC(=O)c5cc6ccccc6o5)ccc4[nH]1)C3=CC2=O (stereo not given) | < 0.001 µM (active) | < 0.001 µM (active) | < 0.001 µM (active) | < 0.001 µM (active) | < 0.001 µM (active) | < 0.001 µM (active) | < 0.001 µM (active) | < 0.001 µM (active) | < 0.001 µM (active) | < 0.001 µM (active) | < 0.001 µM (active) | < 0.001 µM (active) | < 0.001 µM (active) | < 0.001 µM (active) | – | < 0.001 µM (active) | < 0.001 µM (active) | < 0.001 µM (active) | – |
| O=C1C(c2ccccc2)=C(c2ccccc2)C(c2ccc(Sc3ccc(C4=C(c5ccccc5)C(=O)C(c5ccccc5)=C4c4ccccc4)cc3)cc2)=C1c1ccccc1 | > 100 µM (inactive) | > 100 µM (inactive) | > 100 µM (inactive) | – | > 100 µM (inactive) | > 100 µM (inactive) | > 100 µM (inactive) | > 100 µM (inactive) | > 100 µM (inactive) | > 100 µM (inactive) | > 100 µM (inactive) | > 100 µM (inactive) | > 100 µM (inactive) | – | > 100 µM (inactive) | > 100 µM (inactive) | > 100 µM (inactive) | > 100 µM (inactive) | > 100 µM (inactive) |
| CCOC(=O)Cc1nc(/C(C#N)=C/c2ccco2)[nH]c(=O)c1C#N | > 100 µM (inactive) | > 100 µM (inactive) | > 100 µM (inactive) | > 100 µM (inactive) | > 100 µM (inactive) | > 100 µM (inactive) | > 100 µM (inactive) | – | > 100 µM (inactive) | > 100 µM (inactive) | > 100 µM (inactive) | > 100 µM (inactive) | 43.9 µM (inactive) | – | > 100 µM (inactive) | > 100 µM (inactive) | 97.1 µM (inactive) | > 100 µM (inactive) | > 100 µM (inactive) |
| CCOc1ccccc1/N=N/c1c(-c2ccccc2)nn(C(=O)CC(=O)Nc2cccc(Cl)c2)c1-c1ccccc1 | 89.1 µM (inactive) | 37.8 µM (inactive) | 20.4 µM (inactive) | 26.2 µM (inactive) | 35.1 µM (inactive) | 68.2 µM (inactive) | 51.6 µM (inactive) | > 100 µM (inactive) | 61.8 µM (inactive) | 44.6 µM (inactive) | 23.1 µM (inactive) | 63.5 µM (inactive) | 50.4 µM (inactive) | 31.9 µM (inactive) | > 100 µM (inactive) | 68.9 µM (inactive) | 61 µM (inactive) | > 100 µM (inactive) | 19.2 µM (inactive) |
| COc1ccc(/C(=C/n2ccnc2)C(=O)c2ccc(OC)c(OC)c2)cc1 | > 100 µM (inactive) | > 100 µM (inactive) | > 100 µM (inactive) | > 100 µM (inactive) | > 100 µM (inactive) | > 100 µM (inactive) | > 100 µM (inactive) | > 100 µM (inactive) | > 100 µM (inactive) | > 100 µM (inactive) | > 100 µM (inactive) | > 100 µM (inactive) | – | > 100 µM (inactive) | – | > 100 µM (inactive) | > 100 µM (inactive) | > 100 µM (inactive) | > 100 µM (inactive) |
